Structures can show the parent of a compound that is named as a salt. Where two headings read alike, the source gives them in different places. Marks after values point to notes of the source that are not given here.
Experiments:
[1] = target: T1, human 5-HT2A (Homo sapiens (Human), UniProt P28223); experiment: cell-based; format: cell-based; settings: for EC50: duplicate determinations; for agonist response at 5-HT2A: concentrations up to 100 μM
[2] = target: 5-HT2B (Homo sapiens (Human), UniProt P41595); experiment: IP assay (Eurofins, IP1 HTRF), HEK293 cells; format: cell-based; settings: for 5-HT2B Rmax: % of Rmax of 5-HT; for EC50: duplicate determinations; for Selectivity EC50 5-HT2B/EC50 5-HT2A: bounds are conservative estimates;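 on 5-HT2B EC50 (nM): agonist effect read as cellular IP1 production by HTRF using a europium cryptate anti-IP1 antibody donor and D2-labeled IP1 acceptor, eight compound concentrations in each cell line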;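 on 5-HT2B Rmax: agonist effect read as cellular IP1 production by HTRF using a europium cryptate anti-IP1 antibody donor and D2-labeled IP1 acceptor, eight compound concentrations in each cell line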
Experimental: (§1) The agonist properties of the compounds were characterized at HEK293 cell lines expressing the human 5-HT2A, human 5-HT2B or human 5-HT2C receptors in an IP assay essentially as previously described.^19 The testing was performed by Eurofins. In the assay, the agonist activity of the compound at the receptors is investigated by measuring its effect on IP1 production in the cell using the Homogeneous Time Resolved Fluorescence (HTRF) detection method. […] Following incubation, the cells were lysed, and the fluorescence acceptor (D2-labeled IP1) and fluorescence donor (anti-IP1 antibody labeled with europium cryptate) were added. […] The test compounds were characterized in eight different concentrations in duplicate at each of the three cell lines.

[3] = target: T2, 5-HT2C (Homo sapiens (Human), UniProt P28335); experiment: IP assay (Eurofins, IP1 HTRF), HEK293 cells; format: cell-based; settings: for 5-HT2C Rmax (%): % of Rmax of 5-HT;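 on 5-HT2B EC50 (nM): agonist effect read as cellular IP1 production by HTRF using a europium cryptate anti-IP1 antibody donor and D2-labeled IP1 acceptor, eight compound concentrations in each cell line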;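 on 5-HT2B Rmax: agonist effect read as cellular IP1 production by HTRF using a europium cryptate anti-IP1 antibody donor and D2-labeled IP1 acceptor, eight compound concentrations in each cell line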
Experimental: as §1

[4] = tested on: male Sprague Dawley rats treated with ACTH or vehicle; experiment: forced swim test, adrenocorticotropic hormone (ACTH) model; format: in vivo
Experimental: The adrenocorticotropic hormone model (ACTH) model was conducted as previously described.^14 Male Sprague Dawley rats were used (age 7 weeks, N=50) (Taconic Biosciences A/S, Lille Skensved, Denmark). After 1 week habituation, the rats were given either 100 μg ACTH/animal/day s.c. (Adrenocorticotropic Hormone 1-24 (China Peptides, China)) at 10 a.m. for 14 days (n=30) or vehicle (VEH) consisting of 0.9% saline (n=20). At day 14, the rats were subjected to a pre-swim test (15 minutes). […] Preceding the FST, rat baseline mobility was determined in the (OFT). The OFT and the FST were conducted as described above.

[5] = target: T1, human 5-HT2A; experiment: cell-based; format: cell-based; settings: for 5-HT2A Rmax ± S.E.M: % of the Rmax of 5-HT; for Selectivity EC50 5-HT2C/EC50 5-HT2A / agonist response at 5-HT2A: Ca2+/Fluo-4 assay; for Selectivity EC50 5-HT2C/EC50 5-HT2A: bounds are conservative estimates; for agonist response at 5-HT2A: concentrations up to 50 μM
[6] = target: T2, 5-HT2C; experiment: Ca2+/Fluo-4 assay, stable h5-HT2C-HEK293 cell line; format: cell-based; settings: for 5-HT2C agonist activity (n.a./w.a.): tested up to 50 μM; for 5-HT2C Rmax ± S.E.M: % of the Rmax of 5-HT;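 on all read-outs here: Agonist-induced intracellular Ca2+ rise read by Fluo-4 fluorescence in HEK293 cells stably expressing the human 5-HT2C receptor, each compound run in duplicate on three or more occasions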
[7] = tested on: 5-HT2A over 5-HT2C; settings: cited from earlier work
[8] = agonist potency, n = 3-4, read-out: 5-HT2A EC50
[9] = agonist potency, n = 3-4, read-out: 5-HT2A [pEC50 ± S.E.M.] (converted)
[10] = IP assay, up to 100 μM (Table 4)
[11] = IP assay, duplicate determinations, read-out: 5-HT2C EC50
[12] = agonist potency, n = 3-4, read-out: 5-HT2C EC50
[13] = agonist potency, n = 3-4, read-out: 5-HT2C [pEC50 ± S.E.M.] (converted)

T2 sequence (P28335 whole entry, looked up): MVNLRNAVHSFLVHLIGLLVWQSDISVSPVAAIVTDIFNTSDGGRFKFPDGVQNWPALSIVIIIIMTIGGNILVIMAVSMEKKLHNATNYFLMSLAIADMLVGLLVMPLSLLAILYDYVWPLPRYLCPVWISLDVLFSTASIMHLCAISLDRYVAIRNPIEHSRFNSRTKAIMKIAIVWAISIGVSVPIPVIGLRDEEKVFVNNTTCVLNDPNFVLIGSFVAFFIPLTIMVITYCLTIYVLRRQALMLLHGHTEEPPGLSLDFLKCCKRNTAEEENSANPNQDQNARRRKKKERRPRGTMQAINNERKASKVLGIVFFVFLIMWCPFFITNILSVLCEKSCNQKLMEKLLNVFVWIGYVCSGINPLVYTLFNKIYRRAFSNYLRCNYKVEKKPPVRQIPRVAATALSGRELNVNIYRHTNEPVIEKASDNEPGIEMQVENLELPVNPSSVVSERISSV
Sequence of 5-HT2B (P41595 whole entry, looked up): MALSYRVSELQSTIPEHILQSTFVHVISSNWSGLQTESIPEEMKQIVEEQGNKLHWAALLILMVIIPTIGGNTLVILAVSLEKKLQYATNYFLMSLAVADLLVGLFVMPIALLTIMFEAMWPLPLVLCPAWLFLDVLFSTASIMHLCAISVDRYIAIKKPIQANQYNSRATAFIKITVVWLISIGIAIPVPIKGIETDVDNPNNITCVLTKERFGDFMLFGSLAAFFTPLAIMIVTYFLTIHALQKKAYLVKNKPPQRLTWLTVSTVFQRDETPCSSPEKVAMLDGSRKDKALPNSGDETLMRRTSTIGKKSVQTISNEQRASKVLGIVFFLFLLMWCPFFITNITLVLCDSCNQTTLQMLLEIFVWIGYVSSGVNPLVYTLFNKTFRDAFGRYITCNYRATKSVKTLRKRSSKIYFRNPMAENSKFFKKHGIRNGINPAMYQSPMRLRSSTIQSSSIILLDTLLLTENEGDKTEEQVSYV

SMILES	5-HT2B Rmax [2]	5-HT2C Rmax (%) ([3]; IP assay)	5-HT2A Rmax ± S.E.M [5]	EC50 [5, 8]	5-HT2C agonist activity (n.a./w.a.) [6]	5-HT2A Rmax ([1]; IP assay, % of Rmax of 5-HT)	EC50 ([1]; IP assay)	EC50 ([2]; read-out: 5-HT2B EC50)	Selectivity EC50 5-HT2C/EC50 5-HT2A [5]	EC50 [5, 9]	Selectivity EC50 5-HT2B/EC50 5-HT2A [2]	5-HT2C Rmax ± S.E.M [6]	EC50 [6, 12]	other results
COc1cc(CC(C)N)c(OC)cc1I (stereo not drawn) [DOI, 2,5-Dimethoxy-4-iodoamphetamine, reference compound]	79%	89%	–	–	–	–	–	–	–	–	–	–	–	5-HT2A Rmax [1]: 89%; EC50 [3]: 9.1 nM
CN(C)CCCN1c2ccccc2CCc2ccccc21 [imipramine]	–	–	–	–	–	–	–	–	–	–	–	–	–	immobility time in the forced swim test, ACTH-treated rats ([4]; ACTH-treated rats, FIG. 4A): lack of effect; immobility time in the forced swim test, vehicle-treated rats ([4]; vehicle-treated rats, 15 mg/kg i.p., FIG. 4B): significant antidepressant-like effect
COc1cc(CCNCc2ccccc2O)c(OC)cc1C#N [Compound 25CN-NBOH, 4-(2-((2-hydroxybenzyl)amino)ethyl)-2,5-dimethoxybenzonitrile]	–	84%	–	–	–	–	–	–	–	–	–	–	–	EC50 [3]: 27 nM
COc1cc(C(F)(F)F)ccc1[C@@H]1CCCNC1 [Compound 53, (S)-3-(2-methoxy-4-(trifluoromethyl)phenyl)piperidine hydrochloride]	51%	–	68 ± 2%	69 nM	w.a.	87%	250 nM	940 nM	–	–	–	–	–	–
COc1cc([C@@H]2CCCNC2)c(OC2CC2)cc1C(F)(F)F [Compound 55, (S)-3-(2-cyclopropoxy-5-methoxy-4-(trifluoromethyl)phenyl)piperidine hydrochloride]	–	–	30 ± 5%	1100 nM	w.a.	38%	3000 nM	> 100000 nM	>50^e	1070 nM	>30^c	–	–	5-HT2B agonist activity (n.a.) ([2]; up to 100 μM (Table 3)): n.a. [@ 100 μM]^a > (no agonist activity: the compound did not evoke significant responses at concentrations up to 100 μM)
COc1cc([C@H]2CC[C@H](c3ccccc3OC)NC2)c(OC)cc1Br [Compound 8b, reference compound]	–	–	–	–	w.a. [@ 10-50 μM]	–	> 100000 nM	> 100000 nM	–	–	–	–	–	agonist response at 5-HT2A [5]: no agonist response; 5-HT2A agonist activity (n.a./w.a.) ([5]; tested up to 50 μM): w.a. [@ 10-50 μM]; agonist response at 5-HT2A ([1]; IP assay): no agonist response; 5-HT2A agonist activity (n.a./w.a.) [1, 10]: n.a. (no agonist activity: the compound did not evoke significant responses at concentrations up to 100 μM); 5-HT2B agonist activity (n.a./w.a.) ([2]; up to 100 μM (Table 4)): n.a. (no agonist activity: the compound did not evoke significant responses at concentrations up to 100 μM); EC50 [3, 11]: > 100000 nM; 5-HT2C agonist activity (n.a./w.a.) [3, 10]: w.a.; 5-HT2A-over-5-HT2C selectivity in terms of binding affinity [7]: 27 fold
COc1cc(C2CC[C@@H](c3ccccc3OC)NC2)c(OC)cc1Br (stereo partly drawn) [Compound 8a, reference compound]	20%	80%	87 ± 4%	480 nM	–	94%	2300 nM	770 nM	4.1	–	–	82 ± 3%	2000 nM	agonist response at 5-HT2A [5]: evoked significant agonist responses; Selectivity EC50 5-HT2C/EC50 5-HT2A ([5]; listed as compound 8a): only slight selectivity towards 5-HT2A over 5-HT2C; EC50 [6, 13]: 1950 nM; agonist response at 5-HT2A ([1]; IP assay): evoked significant agonist responses; Selectivity EC50 5-HT2C/EC50 5-HT2A ([3]; IP assay): 0.07; EC50 [3, 11]: 170 nM; Selectivity EC50 5-HT2C/EC50 5-HT2A ([3]; IP assay, listed as compound 8a): selectivity towards 5-HT2C and 5-HT2B over 5-HT2A; 5-HT2A-over-5-HT2C selectivity in terms of binding affinity [7]: 13 fold
CCOc1cc([C@@H]2CCCNC2)c(OC)cc1CC.Cl [Compound 34, (S)-3-(5-ethoxy-4-ethyl-2-methoxyphenyl)piperidine hydrochloride]	50%	–	88 ± 4%	52 nM	–	78%	160 nM	860 nM	16	51.3 nM	5.4	28 ± 4%	840 nM	–
COc1cc(C(F)(F)F)c(OC)cc1C1CCC(C)NC1 (single isomer, unassigned) [Compound 38, 5-(2,5-dimethoxy-4-(trifluoromethyl)phenyl)-2-methylpiperidine hydrochloride]	–	–	–	160 nM	w.a.	–	120 nM	2200 nM	–	155 nM	–	–	–	5-HT2A Rmax ± S.E.M ([5]; hydrochloride): 38 ± 4%; Selectivity EC50 5-HT2C/EC50 5-HT2A ([5]; hydrochloride): >300^e; 5-HT2A Rmax ([1]; IP assay, % of Rmax of 5-HT, hydrochloride): 60%; 5-HT2B Rmax ([2]; hydrochloride): 29%; Selectivity EC50 5-HT2B/EC50 5-HT2A ([2]; hydrochloride): 18
COc1cc(C(F)(F)F)c(OC)cc1[C@@H]1CNC[C@@H](C)C1.Cl (relative stereo) [Compound 36, cis or trans 3-(2,5-dimethoxy-4-(trifluoromethyl)phenyl)-5-methylpiperidine hydrochloride]	39%	–	68 ± 2%	48 nM	–	61%	41 nM	120 nM	8.2	–	2.9	43 ± 6%	400 nM	5-HT2A [pEC50 ± S.E.M.] ([5]; agonist potency, n = 3-4): [7.32 ± 0.10]; 5-HT2C [pEC50 ± S.E.M.] ([6]; agonist potency, n = 3-4): [6.40 ± 0.09]
COc1cc(C(F)(F)F)c(OC)cc1CCN [Compound 2C-TFM, 4-trifluoromethyl-2,5-dimethoxyphenethylamine, reference compound]	81%	100%	–	–	–	78%	7.1 nM	–	–	–	–	–	–	EC50 ([2]; 5-HT2B EC50 (nM)): 81 nM; EC50 [3]: 3.8 nM; Selectivity EC50 5-HT2C/EC50 5-HT2A ([3]; IP assay): 0.53
CCSc1cc([C@@H]2CCCNC2)c(OC)cc1C(F)(F)F.Cl [Compound 47, (S)-3-(2-methoxy-5-(ethylthio)-4-(trifluoromethyl)phenyl)piperidine Hydrochloride]	49%	–	96 ± 3%	–	–	95%	130 nM	620 nM	17	26.3 nM	4.8	43 ± 6%	450 nM	EC50 [6, 13]: 457 nM
